Test results published in paper PMC10035389, “Safety, Tolerability, and Pharmacokinetics of TAK-931, a Cell Division Cycle 7 Inhibitor, in Patients with Advanced Solid Tumors: A Phase I First-in-Human Study” (Cancer Research Communications, 2022).

Tested on: patients with advanced solid tumors
Test: Safety and tolerability (adverse events, NCI CTCAE v4.03), phase I dose-escalation study
Type: in vivo, human
Description: This was a phase I, open-label, dose-escalation study of single-agent TAK-931. Dose escalation of TAK-931 was cohort based with an adaptive design using Bayesian logistic regression modeling (BLRM) with pharmacokinetic guidance. BLRM also guided MTD estimation from the second dose. Patients were enrolled in one of four dosing schedules (A, B, D, or E; Supplementary Fig. S1) to receive TAK-931. Two additional schedules were planned (C and F) but no patients were enrolled. Schedule A included an initial accelerated escalation phase. TAK-931 was administered once daily for 14 days in 21-day cycles starting at 30 mg, which doubled until a cycle 1 dose-limiting toxicity (DLT) was observed, when 2 patients experienced grade ≥2 treatment-related toxicity, or when maximum geometric mean plasma concentration (Cmax) for the cohort reached or exceeded 800 ng/mL [threshold for off-target adverse effects (hypotension) in animal toxicology studies]; then dose escalation transitioned to modified Fibonacci escalation steps. In schedule B (based on experience with schedule A), patients received TAK-931 once daily or twice daily for 7 days on, 7 days off in a 28-day cycle starting at 60 mg. In schedule D, patients received TAK-931 once daily starting at 20 mg in 21-day cycles; BLRM was not applied but further adjustments were dependent on observed safety, pharmacokinetics, and pharmacodynamics. In schedule E, patients received TAK-931 once daily for 2 days on, 5 days off starting at 100 mg in 21-day cycles. A safety expansion was permitted once MTD had been determined. Prophylactic growth factors were permitted in all schedules to manage severe and/or febrile neutropenia. TAK-931 treatment continued until unacceptable toxicity, disease progression, or patient withdrawal.
DLTs included: cycle 1 grade ≥3 hematologic and non-hematologic events or grade 2 non-hematologic events considered by the investigator to be TAK-931-related, grade 2 ejection fraction decrease, >2 weeks delay in initiating cycle 2 (1 week for schedules D and E), and >50% TAK-931 dose reduction in cycle 1 due to treatment-related adverse events (AEs; see Supplementary Materials and Methods for full DLT criteria). Toxicity was evaluated by NCI Common Terminology Criteria for Adverse Events (version 4.03). Tumor response was measured using the RECIST (version 1.1) ([16]). Serial blood samples for pharmacokinetic analysis were collected during cycle 1 on days 1 and 7 (schedule B), 1 and 8 (schedules A and D), or 1 and 9 (schedule E). Pharmacokinetic parameters were estimated from concentration–time profiles using noncompartmental methods with WinNonlin® Phoenix™ version 8.1 (Certara, Princeton, NJ). pMCM2 was detected semiquantitatively by IHC of histologic sections of formalin-fixed, paraffin-embedded skin and tumor biopsies using anti-pMCM2 (3378-1, Epitomics Inc.; ref. [15]). Quantitative image analysis determined pMCM2 levels as “histologic score nuclei (H-score).” Skin punch biopsies (2–4 mm) were obtained during screening or predose on cycle 1, day 1 and for patients in schedules A, B, and D, postdose on any drug dosing day after 3 consecutive dosing days in cycle 1. A postdose skin biopsy was obtained on day 9 in schedule E. Fresh tumor biopsy pairs were collected predose and postdose on any dosing day after the completion of 3 consecutive dosing days in cycle 1 from patients who received doses considered to have biological effect.
The safety population included patients who received ≥1 dose of TAK-931. The pharmacodynamic-evaluable population comprised patients from the safety population with a baseline and ≥1 additional postbaseline biopsy sample that was suitable for pMCM2 analysis. The pharmacokinetic-evaluable population included patients with sufficient dosing and TAK-931 concentration–time data to estimate pharmacokinetic parameters. […]

[1] = Schedule D (continuous once daily) n = 18
[2] = Schedule E (2 days on, 5 days off) n = 13
[3] = all schedules, N = 80, all grade 1/2

Cc1[nH]ncc1-c1cc2nc([C@@H]3CC4CCN3CC4)[nH]c(=O)c2s1 [TAK-931, simurosertib]
Rash popular, AE any grade [1]: 2 (11) n (%) | Stomatitis, AE any grade [1]: 0 (0) n (%) | Thrombocytopenia, AE any grade [1]: 0 (0) n (%) | Tumor pain, AE any grade [1]: 1 (6) n (%) | Vomiting, AE any grade [1]: 2 (11) n (%) | White blood cell count decreased, AE any grade [1]: 7 (39) n (%) | White blood cell count decreased, grade ≥3 AE [1]: 2 (11) n % | Abdominal pain, AE any grade [2]: 0 (0) n (%) | Alopecia, AE any grade [2]: 4 (31) n (%) | Anemia, AE any grade [2]: 6 (46) n (%) | Anemia, grade ≥3 AE [2]: 5 (38) n % | Arthralgia, AE any grade [2]: 1 (8) n (%) | Blood creatinine increased, AE any grade [2]: 0 (0) n (%) | Constipation, AE any grade [2]: 1 (8) n (%) | Cough, AE any grade [2]: 0 (0) n (%) | Decreased appetite, AE any grade [2]: 5 (38) n (%) | Decreased appetite, grade ≥3 AE [2]: 0 (0) n % | Diarrhea, AE any grade [2]: 3 (23) n (%) | Dry skin, AE any grade [2]: 3 (23) n (%) | Edema peripheral, AE any grade [2]: 3 (23) n (%) | Electrocardiogram QT prolonged, AE any grade [2]: 1 (8) n (%) | Fall, AE any grade [2]: 2 (15) n (%) | Fatigue, AE any grade [2]: 2 (15) n (%) | Febrile neutropenia, AE any grade [2]: 1 (8) n (%) | Febrile neutropenia, grade ≥3 AE [2]: 1 (8) n % | Gamma-glutamyltransferase increased, AE any grade [2]: 2 (15) n (%) | Gamma-glutamyltransferase increased, grade ≥3 AE [2]: 0 (0) n % | Hypoalbuminemia, AE any grade [2]: 0 (0) n (%) | Hypoalbuminemia, grade ≥3 AE [2]: 0 (0) n % | Hypophosphatemia, grade ≥3 AE [2]: 0 (0) n % | Hypotension, AE any grade [2]: 5 (38) n (%) | Leukopenia, AE any grade [2]: 1 (8) n (%) | Leukopenia, grade ≥3 AE [2]: 0 (0) n % | Lymphocyte count decreased, AE any grade [2]: 1 (8) n (%) | Lymphocyte count decreased, grade ≥3 AE [2]: 1 (8) n % | Lymphopenia, AE any grade [2]: 0 (0) n (%) | Malaise, AE any grade [2]: 2 (15) n (%) | Nasopharyngitis, AE any grade [2]: 0 (0) n (%) | Nausea, AE any grade [2]: 7 (54) n (%) | Neutropenia, AE any grade [2]: 8 (62) n (%) | Neutropenia, grade ≥3 AE [2]: 8 (62) n % | Orthostatic hypotension, AE any grade [2]: 3 (23) n (%) | Platelet count decreased, AE any grade [2]: 1 (8) n (%) | Pruritus, AE any grade [2]: 0 (0) n (%) | Pyrexia, AE any grade [2]: 2 (15) n (%) | Rash popular, AE any grade [2]: 0 (0) n (%) | Stomatitis, AE any grade [2]: 1 (8) n (%) | Thrombocytopenia, AE any grade [2]: 0 (0) n (%) | Tumor pain, AE any grade [2]: 3 (23) n (%) | Vomiting, AE any grade [2]: 7 (54) n (%) | White blood cell count decreased, AE any grade [2]: 7 (54) n (%) | White blood cell count decreased, grade ≥3 AE [2]: 4 (31) n % | Abdominal pain, AE any grade (Total, all schedules N = 80): 5 (6) n (%) | Alopecia, AE any grade (Total, all schedules N = 80): 26 (33) n (%) | Anemia, AE any grade (Total, all schedules N = 80): 19 (24) n (%) | Anemia, grade ≥3 AE (Total, all schedules N = 80): 10 (13) n % | Arthralgia, AE any grade (Total, all schedules N = 80): 6 (8) n (%) | Blood creatinine increased, AE any grade (Total, all schedules N = 80): 7 (9) n (%) | Constipation, AE any grade (Total, all schedules N = 80): 10 (13) n (%) | Cough, AE any grade (Total, all schedules N = 80): 3 (4) n (%) | Decreased appetite, AE any grade (Total, all schedules N = 80): 23 (29) n (%) | Decreased appetite, grade ≥3 AE (Total, all schedules N = 80): 3 (4) n % | Diarrhea, AE any grade (Total, all schedules N = 80): 15 (19) n (%) | Dry skin, AE any grade (Total, all schedules N = 80): 6 (8) n (%) | Edema peripheral, AE any grade (Total, all schedules N = 80): 10 (13) n (%) | Electrocardiogram QT prolonged, AE any grade (Total, all schedules N = 80): 4 (5) n (%) | Fall, AE any grade (Total, all schedules N = 80): 4 (5) n (%) | Fatigue, AE any grade (Total, all schedules N = 80): 12 (15) n (%) | Febrile neutropenia, AE any grade (Total, all schedules N = 80): 5 (6) n (%) | Febrile neutropenia, grade ≥3 AE (Total, all schedules N = 80): 5 (6) n % | Gamma-glutamyltransferase increased, AE any grade (Total, all schedules N = 80): 5 (6) n (%) | Gamma-glutamyltransferase increased, grade ≥3 AE (Total, all schedules N = 80): 2 (3) n % | Hypoalbuminemia, AE any grade (Total, all schedules N = 80): 6 (8) n (%) | Hypoalbuminemia, grade ≥3 AE (Total, all schedules N = 80): 2 (3) n % | Hypophosphatemia, grade ≥3 AE (Total, all schedules N = 80): 2 (3) n % | Hypotension, AE any grade (Total, all schedules N = 80): 11 (14) n (%) | Leukopenia, AE any grade (Total, all schedules N = 80): 19 (24) n (%) | Leukopenia, grade ≥3 AE (Total, all schedules N = 80): 11 (14) n % | Lymphocyte count decreased, AE any grade (Total, all schedules N = 80): 4 (5) n (%) | Lymphocyte count decreased, grade ≥3 AE (Total, all schedules N = 80): 2 (3) n % | Lymphopenia, AE any grade (Total, all schedules N = 80): 5 (6) n (%) | Malaise, AE any grade (Total, all schedules N = 80): 11 (14) n (%) | Nasopharyngitis, AE any grade (Total, all schedules N = 80): 6 (8) n (%) | Nausea, AE any grade (Total, all schedules N = 80): 48 (60) n (%) | Neutropenia, AE any grade (Total, all schedules N = 80): 45 (56) n (%) | Neutropenia, grade ≥3 AE (Total, all schedules N = 80): 37 (46) n % | Orthostatic hypotension, AE any grade (Total, all schedules N = 80): 4 (5) n (%) | Platelet count decreased, AE any grade (Total, all schedules N = 80): 6 (8) n (%) | Pruritus, AE any grade (Total, all schedules N = 80): 4 (5) n (%) | Pyrexia, AE any grade (Total, all schedules N = 80): 10 (13) n (%) | Rash popular, AE any grade (Total, all schedules N = 80): 5 (6) n (%) | Stomatitis, AE any grade (Total, all schedules N = 80): 7 (9) n (%) | Thrombocytopenia, AE any grade (Total, all schedules N = 80): 5 (6) n (%) | Tumor pain, AE any grade (Total, all schedules N = 80): 8 (10) n (%) | Vomiting, AE any grade (Total, all schedules N = 80): 29 (36) n (%) | White blood cell count decreased, AE any grade (Total, all schedules N = 80): 27 (34) n (%) | White blood cell count decreased, grade ≥3 AE (Total, all schedules N = 80): 12 (15) n % | Decrease in CLr (renal effects monitoring) (all schedules): no clinically relevant decrease | Severity of cardiovascular events (all schedules): grade 1/2 | Alopecia, AE (all schedules, N = 80): 33% | Anemia, AE (all schedules, N = 80): 24% | Anemia, grade ≥3 AE (all schedules, N = 80): 13% | Decreased appetite, AE (all schedules, N = 80): 29% | Febrile neutropenia, grade ≥3 AE (all schedules, N = 80): 6% | Leukopenia, AE (all schedules, N = 80): 24% | Leukopenia, grade ≥3 AE (all schedules, N = 80): 14% | Nausea, AE (all schedules, N = 80): 60% | Neutropenia, AE (all schedules, N = 80): 56% | Neutropenia, grade ≥3 AE (all schedules, N = 80): 46% | Patients who discontinued treatment (AEs) (all schedules, N = 80): 4 patients | Patients with AEs resulting in dose delays (all schedules, N = 80): 40% | Patients with AEs resulting in dose holds (all schedules, N = 80): 45% | Patients with AEs resulting in dose reductions (all schedules, N = 80): 31% | Vomiting, AE (all schedules, N = 80): 36% | White blood cell count decreased, AE (all schedules, N = 80): 34% | White blood cell count decreased, grade ≥3 AE (all schedules, N = 80): 15% | Patients reporting grade ≥3 AEs (all schedules, N = 80, 50 patients): 63% | Patients experiencing AEs (all schedules, N = 80, 79 patients): 99% | Patients with AEs resulting in TAK-931 dose modification (all schedules, N = 80, Forty-nine patients): 61% | Patients who discontinued treatment (AEs) (all schedules, N = 80, Four patients): 5% | Patients with ≥1 serious AE (all schedules, N = 80, Twenty-three patients): 29% | Electrocardiogram QT prolonged, cardiovascular event [3]: 5% | Hypotension, cardiovascular event [3]: 14% | Orthostatic hypotension, cardiovascular event [3]: 5% | Decreased appetite, serious AE (all schedules, N = 80, n = 3): 4% | Malignant ascites, serious AE (all schedules, N = 80, n = 3): 4% | Febrile neutropenia, serious AE (all schedules, N = 80, n = 4): 5% | Patients who died during the study (all schedules, Two patients, due to disease progression, neither related to TAK-931): 3%
